Data published in the NIST ThermoML archive (doi:10.1021/acs.jced.8b00132).
Values joined by “and” are separate entries in the source; they are usually repeats but may differ in a detail not shown here. Identical values can stand only once.

Settings: transient hot wire

O=C(C(F)(F)C(F)(F)F)C(F)(C(F)(F)F)C(F)(F)F [dodecafluoro-2-methylpentan-3-one]
Settings | thermal conductivity
359 K, 91 kPa, Gas | 0.0172 W/m/K and 0.01701 W/m/K
359.01 K, 17992 kPa, Liquid | 0.05723 W/m/K
359.02 K, 33597 kPa, Liquid | 0.06346 W/m/K
359.03 K, 33605 kPa, Liquid | 0.06342 W/m/K
359.05 K, 56095 kPa, Liquid | 0.07054 W/m/K
359.05 K, 56112 kPa, Liquid | 0.07057 W/m/K
359.07 K, 256 kPa, Gas | 0.0162 W/m/K
359.07 K, 257 kPa, Gas | 0.01618 W/m/K
359.07 K, 11964 kPa, Liquid | 0.05443 W/m/K
359.07 K, 11965 kPa, Liquid | 0.05441 W/m/K
359.13 K, 188 kPa, Gas | 0.01636 W/m/K
359.13 K, 24956 kPa, Liquid | 0.06016 W/m/K
359.14 K, 7109 kPa, Liquid | 0.05182 W/m/K
359.14 K, 7110 kPa, Liquid | 0.05179 W/m/K
359.14 K, 24956 kPa, Liquid | 0.06017 W/m/K
359.14 K, 43845 kPa, Liquid | 0.06681 W/m/K
359.14 K, 43855 kPa, Liquid | 0.06693 W/m/K
359.16 K, 26 kPa, Gas | 0.01687 W/m/K
359.16 K, 67834 kPa, Liquid | 0.07385 W/m/K
359.17 K, 67856 kPa, Liquid | 0.07389 W/m/K
359.19 K, 3417 kPa, Liquid | 0.04968 W/m/K
359.19 K, 3419 kPa, Liquid | 0.04955 W/m/K
359.22 K, 17993 kPa, Liquid | 0.05729 W/m/K and 0.05726 W/m/K
359.22 K, 33590 kPa, Liquid | 0.06336 W/m/K
359.23 K, 33591 kPa, Liquid | 0.06345 W/m/K
359.24 K, 91 kPa, Gas | 0.01701 W/m/K and 0.01691 W/m/K
359.24 K, 56073 kPa, Liquid | 0.07065 W/m/K
359.24 K, 56086 kPa, Liquid | 0.07061 W/m/K
359.27 K, 352 kPa, Liquid | 0.04733 W/m/K and 0.04736 W/m/K
359.28 K, 352 kPa, Liquid | 0.04735 W/m/K
359.29 K, 352 kPa, Liquid | 0.04741 W/m/K
359.29 K, 11963 kPa, Liquid | 0.05419 W/m/K
359.29 K, 11964 kPa, Liquid | 0.05442 W/m/K
359.3 K, 256 kPa, Gas | 0.01611 W/m/K
359.31 K, 256 kPa, Gas | 0.01615 W/m/K
359.32 K, 43840 kPa, Liquid | 0.06681 W/m/K
359.33 K, 24951 kPa, Liquid | 0.06022 W/m/K
359.34 K, 24951 kPa, Liquid | 0.06017 W/m/K
359.34 K, 43843 kPa, Liquid | 0.06687 W/m/K
359.35 K, 67807 kPa, Liquid | 0.07425 W/m/K
359.36 K, 7099 kPa, Liquid | 0.0518 W/m/K
359.36 K, 67822 kPa, Liquid | 0.07392 W/m/K
359.37 K, 187 kPa, Gas | 0.01646 W/m/K
359.37 K, 7108 kPa, Liquid | 0.05182 W/m/K
359.38 K, 187 kPa, Gas | 0.01639 W/m/K
359.4 K, 26 kPa, Gas | 0.01671 W/m/K
359.41 K, 26 kPa, Gas | 0.01672 W/m/K
359.42 K, 3418 kPa, Liquid | 0.04952 W/m/K
359.42 K, 3419 kPa, Liquid | 0.04953 W/m/K
359.42 K, 33575 kPa, Liquid | 0.06335 W/m/K
359.43 K, 33582 kPa, Liquid | 0.06336 W/m/K
359.43 K, 56047 kPa, Liquid | 0.07056 W/m/K
359.44 K, 17994 kPa, Liquid | 0.05721 W/m/K
359.44 K, 18001 kPa, Liquid | 0.05746 W/m/K
359.44 K, 56060 kPa, Liquid | 0.07057 W/m/K
359.5 K, 91 kPa, Gas | 0.01707 W/m/K
359.51 K, 91 kPa, Gas | 0.017 W/m/K
359.51 K, 11963 kPa, Liquid | 0.05441 W/m/K
359.52 K, 352 kPa, Liquid | 0.04737 W/m/K and 0.04738 W/m/K
359.52 K, 353 kPa, Liquid | 0.04735 W/m/K
359.52 K, 11964 kPa, Liquid | 0.05441 W/m/K
359.53 K, 352 kPa, Liquid | 0.04692 W/m/K
359.54 K, 43829 kPa, Liquid | 0.06685 W/m/K
359.54 K, 43830 kPa, Liquid | 0.06684 W/m/K
359.55 K, 24946 kPa, Liquid | 0.06014 W/m/K
359.55 K, 24949 kPa, Liquid | 0.06011 W/m/K
359.56 K, 256 kPa, Gas | 0.01628 W/m/K
359.57 K, 256 kPa, Gas | 0.01631 W/m/K
359.6 K, 7096 kPa, Liquid | 0.05174 W/m/K
359.6 K, 7098 kPa, Liquid | 0.05175 W/m/K
359.63 K, 33565 kPa, Liquid | 0.06333 W/m/K
359.64 K, 187 kPa, Gas | 0.01647 W/m/K and 0.01644 W/m/K
359.64 K, 33572 kPa, Liquid | 0.06333 W/m/K
359.66 K, 18006 kPa, Liquid | 0.0572 W/m/K
359.67 K, 3420 kPa, Liquid | 0.04948 W/m/K
359.67 K, 3421 kPa, Liquid | 0.04951 W/m/K
359.67 K, 18004 kPa, Liquid | 0.05719 W/m/K
359.7 K, 26 kPa, Gas | 0.0168 W/m/K and 0.01681 W/m/K
359.75 K, 11967 kPa, Liquid | 0.05434 W/m/K
359.76 K, 11965 kPa, Liquid | 0.05435 W/m/K
359.77 K, 353 kPa, Liquid | 0.04733 W/m/K
359.78 K, 352 kPa, Liquid | 0.0473 W/m/K and 0.04737 W/m/K
359.78 K, 353 kPa, Liquid | 0.0473 W/m/K
359.78 K, 24941 kPa, Liquid | 0.06008 W/m/K
